Data from ChEMBL document CHEMBL4507299, “Data for DCP probe PF-04554878” (2021).

Tests used:
[1] = molecular target: Rho-associated protein kinase 2 (Homo sapiens) (UniProt O75116)
[2] = molecular target: Serine/threonine-protein kinase PAK 6 (Homo sapiens) (UniProt Q9NQU5)
[3] = molecular target: Homeodomain-interacting protein kinase 3 (Homo sapiens) (UniProt Q9H422)
[4] = tested on: Tyrosine-protein kinase ABL1 (Homo sapiens), P00519 [F317L]
[5] = molecular target: Testis-specific serine/threonine-protein kinase 3 (Homo sapiens) (UniProt Q96PN8)
Sequence of Testis-specific serine/threonine-protein kinase 3 (Homo sapiens) (Q96PN8 whole entry): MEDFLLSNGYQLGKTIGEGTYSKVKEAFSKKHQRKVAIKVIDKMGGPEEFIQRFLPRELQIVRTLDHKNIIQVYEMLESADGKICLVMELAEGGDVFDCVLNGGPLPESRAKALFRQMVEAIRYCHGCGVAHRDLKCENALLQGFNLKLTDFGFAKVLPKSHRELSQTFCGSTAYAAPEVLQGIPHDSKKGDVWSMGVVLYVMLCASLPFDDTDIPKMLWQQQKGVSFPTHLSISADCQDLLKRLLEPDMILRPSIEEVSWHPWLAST

[6] = molecular target: Homeodomain-interacting protein kinase 1 (Homo sapiens) (UniProt Q86Z02)
[7] = molecular target: Misshapen-like kinase 1 (Homo sapiens) (UniProt Q8N4C8)
[8] = molecular target: Mitogen-activated protein kinase kinase kinase 13 (Homo sapiens) (UniProt O43283)
[9] = tested on: Receptor-type tyrosine-protein kinase FLT3 (Homo sapiens), P36888 [K663Q]
[10] = molecular target: Mitogen-activated protein kinase 10 (Homo sapiens) (UniProt P53779)
[11] = molecular target: Serine/threonine-protein kinase/endoribonuclease IRE1 (Homo sapiens) (UniProt O75460)
[12] = tested on: Phosphatidylinositol 4,5-bisphosphate 3-kinase catalytic subunit alpha isoform (Homo sapiens), P42336 [H1047L]
[13] = molecular target: Mitogen-activated protein kinase 9 (Homo sapiens) (UniProt P45984)
[14] = tested on: Phosphatidylinositol 4,5-bisphosphate 3-kinase catalytic subunit alpha isoform (Homo sapiens), P42336 [E545A]
[15] = molecular target: Serine/threonine-protein kinase LATS2 (Homo sapiens) (UniProt Q9NRM7)
Sequence of Serine/threonine-protein kinase LATS2 (Homo sapiens) (Q9NRM7 whole entry): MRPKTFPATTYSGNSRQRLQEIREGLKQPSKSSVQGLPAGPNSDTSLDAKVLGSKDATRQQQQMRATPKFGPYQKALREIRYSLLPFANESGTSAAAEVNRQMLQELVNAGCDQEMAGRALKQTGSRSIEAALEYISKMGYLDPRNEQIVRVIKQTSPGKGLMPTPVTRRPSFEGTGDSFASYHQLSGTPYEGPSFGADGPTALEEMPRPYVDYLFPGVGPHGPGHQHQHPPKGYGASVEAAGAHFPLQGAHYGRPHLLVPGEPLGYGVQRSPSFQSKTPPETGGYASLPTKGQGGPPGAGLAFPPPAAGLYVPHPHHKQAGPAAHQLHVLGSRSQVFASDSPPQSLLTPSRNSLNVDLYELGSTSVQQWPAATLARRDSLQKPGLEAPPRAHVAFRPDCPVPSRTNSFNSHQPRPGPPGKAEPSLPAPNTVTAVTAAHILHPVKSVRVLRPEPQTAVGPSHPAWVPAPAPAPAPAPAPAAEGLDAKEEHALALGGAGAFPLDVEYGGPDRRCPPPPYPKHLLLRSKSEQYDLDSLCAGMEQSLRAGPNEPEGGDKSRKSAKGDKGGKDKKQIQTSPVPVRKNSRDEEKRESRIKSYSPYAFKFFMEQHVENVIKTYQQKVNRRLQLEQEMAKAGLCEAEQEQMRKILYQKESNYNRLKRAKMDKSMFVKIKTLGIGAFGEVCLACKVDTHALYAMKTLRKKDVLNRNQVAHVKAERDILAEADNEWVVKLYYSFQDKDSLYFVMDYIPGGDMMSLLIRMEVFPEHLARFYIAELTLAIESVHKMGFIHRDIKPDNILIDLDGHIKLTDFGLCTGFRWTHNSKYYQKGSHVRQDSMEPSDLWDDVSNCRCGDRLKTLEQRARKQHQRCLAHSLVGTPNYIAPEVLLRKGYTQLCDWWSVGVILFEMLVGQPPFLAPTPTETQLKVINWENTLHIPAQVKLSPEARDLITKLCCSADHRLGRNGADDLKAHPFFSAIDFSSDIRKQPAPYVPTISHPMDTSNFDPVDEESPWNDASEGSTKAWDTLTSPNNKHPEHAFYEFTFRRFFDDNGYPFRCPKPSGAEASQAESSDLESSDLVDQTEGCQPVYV

[16] = tested on: Mast/stem cell growth factor receptor Kit (Homo sapiens), P10721 [A829P]
[17] = molecular target: MAP kinase-activated protein kinase 2 (Homo sapiens) (UniProt P49137)
[18] = molecular target: Serine/threonine-protein kinase ULK2 (Homo sapiens) (UniProt Q8IYT8)
[19] = molecular target: Death-associated protein kinase 1 (Homo sapiens) (UniProt P53355)
[20] = molecular target: cAMP-dependent protein kinase catalytic subunit PRKX (Homo sapiens) (UniProt P51817)
[21] = molecular target: RAC-alpha serine/threonine-protein kinase (Homo sapiens) (UniProt P31749)
[22] = molecular target: Histamine H3 receptor (Homo sapiens) (UniProt Q9Y5N1); details: Compound concentration 10.0 uM
[23] = molecular target: Mitogen-activated protein kinase kinase kinase kinase 4 (Homo sapiens) (UniProt O95819)
[24] = molecular target: Serine/threonine-protein kinase MARK2 (Homo sapiens) (UniProt Q7KZI7)
[25] = molecular target: Wee1-like protein kinase 2 (Homo sapiens) (UniProt P0C1S8)
[26] = molecular target: Macrophage colony-stimulating factor 1 receptor (Homo sapiens) (UniProt P07333)
Sequence of Macrophage colony-stimulating factor 1 receptor (Homo sapiens) (P07333 whole entry): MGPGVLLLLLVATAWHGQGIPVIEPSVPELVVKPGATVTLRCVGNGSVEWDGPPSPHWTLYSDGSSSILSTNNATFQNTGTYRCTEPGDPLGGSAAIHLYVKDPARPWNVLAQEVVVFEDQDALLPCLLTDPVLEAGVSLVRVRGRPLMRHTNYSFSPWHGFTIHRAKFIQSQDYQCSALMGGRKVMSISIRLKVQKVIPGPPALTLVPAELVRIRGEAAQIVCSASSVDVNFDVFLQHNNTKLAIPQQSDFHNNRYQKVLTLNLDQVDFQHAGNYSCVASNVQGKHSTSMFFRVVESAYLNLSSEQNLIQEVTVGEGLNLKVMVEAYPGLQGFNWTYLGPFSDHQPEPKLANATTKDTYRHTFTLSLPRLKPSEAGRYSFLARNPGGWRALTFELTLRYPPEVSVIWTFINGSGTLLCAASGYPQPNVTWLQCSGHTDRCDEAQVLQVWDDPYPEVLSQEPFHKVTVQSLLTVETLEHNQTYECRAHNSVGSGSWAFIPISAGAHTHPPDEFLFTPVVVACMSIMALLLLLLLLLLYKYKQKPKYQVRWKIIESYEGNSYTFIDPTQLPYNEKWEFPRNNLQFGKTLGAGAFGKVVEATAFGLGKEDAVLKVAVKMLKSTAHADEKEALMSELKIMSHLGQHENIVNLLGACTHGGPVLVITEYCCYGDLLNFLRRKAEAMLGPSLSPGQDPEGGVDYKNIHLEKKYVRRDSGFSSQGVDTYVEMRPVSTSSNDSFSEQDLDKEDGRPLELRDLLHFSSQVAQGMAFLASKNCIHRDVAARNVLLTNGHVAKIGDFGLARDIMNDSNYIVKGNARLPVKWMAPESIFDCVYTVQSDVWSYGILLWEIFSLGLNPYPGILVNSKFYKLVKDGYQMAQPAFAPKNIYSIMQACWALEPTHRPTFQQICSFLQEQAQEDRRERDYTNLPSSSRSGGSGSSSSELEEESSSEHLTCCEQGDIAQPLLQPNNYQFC

[27] = tested on: Receptor-type tyrosine-protein kinase FLT3 (Homo sapiens), P36888 [D835H]
[28] = molecular target: Serine/threonine-protein kinase WNK3 (Homo sapiens) (UniProt Q9BYP7)
[29] = molecular target: Serine/threonine-protein kinase DCLK2 (Homo sapiens) (UniProt Q8N568)
[30] = tested on: Phosphatidylinositol 4,5-bisphosphate 3-kinase catalytic subunit alpha isoform (Homo sapiens), P42336 [H1047Y]
[31] = molecular target: Sigma intracellular receptor 2 (Homo sapiens, UniProt Q5BJF2); details: Compound concentration 10.0 uM
[32] = molecular target: Serine/threonine-protein kinase WNK2 (Homo sapiens) (UniProt Q9Y3S1)
[33] = molecular target: Epithelial discoidin domain-containing receptor 1 (Homo sapiens) (UniProt Q08345)
[34] = molecular target: Ephrin type-A receptor 2 (Homo sapiens) (UniProt P29317)
[35] = molecular target: Ribosomal protein S6 kinase beta-1 (Homo sapiens) (UniProt P23443)
[36] = molecular target: GABA-A receptor; anion channel (Rattus norvegicus) (UniProt O09028+P15431+P18506+P18508+P19969+P20236+P23574+P23576+P28471+P28473+P30191+P62813+P63079+P63138+Q91ZM7+Q9ES14); details: Compound concentration 10.0 uM
[37] = tested on: eIF-2-alpha kinase GCN2 (Homo sapiens), Q9P2K8 [S808G]
Sequence of eIF-2-alpha kinase GCN2 (Homo sapiens), Q9P2K8 [S808G] (Q9P2K8 whole entry S808G): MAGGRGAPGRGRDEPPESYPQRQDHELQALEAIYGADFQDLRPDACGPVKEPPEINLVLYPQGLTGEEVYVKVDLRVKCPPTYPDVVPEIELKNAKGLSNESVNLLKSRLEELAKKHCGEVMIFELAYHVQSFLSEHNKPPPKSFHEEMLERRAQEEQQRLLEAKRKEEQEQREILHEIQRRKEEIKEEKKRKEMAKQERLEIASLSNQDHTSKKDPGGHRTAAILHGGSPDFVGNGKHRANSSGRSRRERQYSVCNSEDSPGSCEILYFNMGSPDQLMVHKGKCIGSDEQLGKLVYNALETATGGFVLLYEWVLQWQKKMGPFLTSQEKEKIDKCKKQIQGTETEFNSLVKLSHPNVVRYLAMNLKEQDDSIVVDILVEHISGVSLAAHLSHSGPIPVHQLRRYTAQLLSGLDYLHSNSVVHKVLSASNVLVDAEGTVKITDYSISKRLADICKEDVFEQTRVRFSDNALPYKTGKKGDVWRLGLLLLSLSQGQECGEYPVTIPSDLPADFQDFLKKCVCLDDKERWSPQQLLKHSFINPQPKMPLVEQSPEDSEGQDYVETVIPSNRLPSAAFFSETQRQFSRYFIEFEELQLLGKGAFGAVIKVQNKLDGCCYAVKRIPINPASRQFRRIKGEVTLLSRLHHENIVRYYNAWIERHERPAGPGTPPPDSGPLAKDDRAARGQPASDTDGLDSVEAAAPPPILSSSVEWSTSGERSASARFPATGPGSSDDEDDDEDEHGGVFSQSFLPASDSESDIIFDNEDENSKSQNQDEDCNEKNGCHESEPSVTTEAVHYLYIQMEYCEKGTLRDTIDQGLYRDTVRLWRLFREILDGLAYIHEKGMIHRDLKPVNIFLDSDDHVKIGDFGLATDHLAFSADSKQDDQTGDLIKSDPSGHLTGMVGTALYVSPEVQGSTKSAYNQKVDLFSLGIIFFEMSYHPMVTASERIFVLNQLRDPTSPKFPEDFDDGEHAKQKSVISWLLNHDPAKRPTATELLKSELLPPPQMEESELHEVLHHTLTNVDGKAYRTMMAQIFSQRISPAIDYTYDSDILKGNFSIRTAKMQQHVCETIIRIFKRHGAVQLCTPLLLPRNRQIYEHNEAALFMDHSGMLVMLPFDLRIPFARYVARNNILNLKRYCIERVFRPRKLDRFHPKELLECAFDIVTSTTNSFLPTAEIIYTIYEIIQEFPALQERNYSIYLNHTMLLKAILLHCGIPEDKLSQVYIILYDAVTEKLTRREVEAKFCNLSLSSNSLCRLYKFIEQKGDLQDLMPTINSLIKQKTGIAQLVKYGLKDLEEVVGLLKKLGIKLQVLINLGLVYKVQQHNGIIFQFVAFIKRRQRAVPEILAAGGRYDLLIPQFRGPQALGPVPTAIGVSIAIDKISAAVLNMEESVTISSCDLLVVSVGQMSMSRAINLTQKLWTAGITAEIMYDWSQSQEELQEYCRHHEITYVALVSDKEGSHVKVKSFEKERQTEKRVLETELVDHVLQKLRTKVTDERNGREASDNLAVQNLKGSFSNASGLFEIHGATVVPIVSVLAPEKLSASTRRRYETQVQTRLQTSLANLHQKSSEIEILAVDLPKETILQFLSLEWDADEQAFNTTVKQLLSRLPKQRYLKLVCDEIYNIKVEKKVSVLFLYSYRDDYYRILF

[38] = molecular target: Mitogen-activated protein kinase kinase kinase 15 (Homo sapiens) (UniProt Q6ZN16)
[39] = molecular target: Muscarinic acetylcholine receptor M1 (Homo sapiens) (UniProt P11229); details: Compound concentration 10.0 uM
[40] = molecular target: Mitogen-activated protein kinase kinase kinase kinase 2 (Homo sapiens) (UniProt Q12851)
[41] = tested on: Tyrosine-protein kinase ABL1 (Homo sapiens), P00519 [F317L]; remark: listed apart in the source
[42] = molecular target: Death-associated protein kinase 2 (Homo sapiens) (UniProt Q9UIK4)
[43] = molecular target: Tyrosine-protein kinase Lck (Homo sapiens) (UniProt P06239)
[44] = Compound concentration 100.0 nM
[45] = Compound concentration 1000.0 nM

Sequence of Tyrosine-protein kinase ABL1 (Homo sapiens), P00519 [F317L] (P00519 whole entry F317L): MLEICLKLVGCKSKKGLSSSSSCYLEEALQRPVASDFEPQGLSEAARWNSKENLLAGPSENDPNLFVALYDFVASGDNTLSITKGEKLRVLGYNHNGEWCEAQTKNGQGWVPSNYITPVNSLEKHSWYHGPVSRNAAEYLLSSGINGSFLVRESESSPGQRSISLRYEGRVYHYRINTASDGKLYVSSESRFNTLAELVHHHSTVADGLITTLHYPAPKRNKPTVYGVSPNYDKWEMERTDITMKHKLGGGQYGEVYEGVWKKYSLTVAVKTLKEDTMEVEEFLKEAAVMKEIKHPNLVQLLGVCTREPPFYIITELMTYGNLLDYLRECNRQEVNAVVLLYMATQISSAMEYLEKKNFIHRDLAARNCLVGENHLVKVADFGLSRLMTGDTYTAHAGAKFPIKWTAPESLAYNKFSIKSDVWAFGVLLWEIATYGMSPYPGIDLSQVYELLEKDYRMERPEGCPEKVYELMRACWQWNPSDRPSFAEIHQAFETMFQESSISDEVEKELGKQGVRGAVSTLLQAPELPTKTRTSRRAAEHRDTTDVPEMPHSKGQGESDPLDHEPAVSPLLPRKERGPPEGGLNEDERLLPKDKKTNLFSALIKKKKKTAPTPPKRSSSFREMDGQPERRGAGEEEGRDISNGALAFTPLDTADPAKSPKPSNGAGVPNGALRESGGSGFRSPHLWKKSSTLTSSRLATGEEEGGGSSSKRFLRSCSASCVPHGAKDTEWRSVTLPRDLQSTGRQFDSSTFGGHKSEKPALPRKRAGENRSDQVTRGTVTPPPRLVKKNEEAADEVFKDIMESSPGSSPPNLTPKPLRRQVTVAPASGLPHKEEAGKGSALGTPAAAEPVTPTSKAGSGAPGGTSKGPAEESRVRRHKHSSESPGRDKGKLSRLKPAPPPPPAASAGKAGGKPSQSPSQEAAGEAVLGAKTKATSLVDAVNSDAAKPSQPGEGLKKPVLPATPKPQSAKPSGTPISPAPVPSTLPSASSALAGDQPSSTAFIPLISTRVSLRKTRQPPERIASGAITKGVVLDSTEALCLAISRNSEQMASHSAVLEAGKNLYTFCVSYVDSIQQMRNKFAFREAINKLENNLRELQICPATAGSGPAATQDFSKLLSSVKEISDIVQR

CNC(=O)c1ccc(Nc2ncc(C(F)(F)F)c(NCc3nccnc3N(C)S(C)(=O)=O)n2)cc1 [DEFACTINIB] was tested, and the residual activity [1, 44] was 100%, the residual activity [2, 44] was 100% and the residual activity [3, 44] was 47%. For the same compound, the residual activity [4, 44] was 93%, the residual activity [5, 44] was 77% and the residual activity [6, 44] was 27%. For the same compound, the residual activity [7, 44] was 44%, the residual activity [8, 44] was 98% and the residual activity [9, 44] was 21%. It also gave a residual activity [10, 44] of 100%, a residual activity [11, 44] of 75% and a residual activity [12, 44] of 32%. It also gave a residual activity [13, 44] of 95%, a residual activity [14, 44] of 98% and a residual activity [15, 44] of 65%. The residual activity [16, 44] was 85%, the residual activity [17, 44] was 100% and the residual activity [18, 44] was 75%. The residual activity [19, 44] was 82%, the residual activity [20, 44] was 95% and the residual activity [21, 44] was 100%. The inhibition [22] was -7.94%, the residual activity [23, 44] was 98% and the residual activity [24, 44] was 66%. It also gave a residual activity [25, 44] of 97%, a residual activity [26, 44] of 100% and a residual activity [27, 44] of 9.8%. It also gave a residual activity [28, 44] of 100%, a residual activity [29, 44] of 71% and a residual activity [30, 44] of 100%. It also gave an inhibition [31] of 48.1%, a residual activity [32, 44] of 94% and a residual activity [33, 44] of 100%. The residual activity [34, 44] was 86%, the residual activity [35, 44] was 96% and the inhibition [36] was -7.85%. The residual activity [37, 44] was 27%, the residual activity [38, 44] was 95% and the inhibition [39] was 19.3%. For the same compound, the residual activity [40, 44] was 100%, the residual activity [41, 44] was 100% and the residual activity [42, 44] was 68%. The residual activity [43, 44] was 87%.

In the case of CN(c1ccnc(CNc2nc(Nc3ccc4c(c3)CC(=O)N4)ncc2C(F)(F)F)n1)S(C)(=O)=O [PF-00911705], the residual activity [1, 45] is reported as 69%, the residual activity [2, 45] is reported as 71% and the residual activity [3, 45] is reported as 48%. It also gave a residual activity [4, 45] of 84%, a residual activity [5, 45] of 80% and a residual activity [6, 45] of 45%. For the same compound, the residual activity [7, 45] was 53%, the residual activity [8, 45] was 0% and the residual activity [9, 45] was 16%. It also gave a residual activity [10, 45] of 56%, a residual activity [11, 45] of 49% and a residual activity [12, 45] of 92%. It also gave a residual activity [13, 45] of 79%, a residual activity [14, 45] of 90% and a residual activity [15, 45] of 42%. For the same compound, the residual activity [16, 45] was 46%, the residual activity [17, 45] was 100% and the residual activity [18, 45] was 5.4%. The residual activity [19, 45] was 15%, the residual activity [20, 45] was 15% and the residual activity [21, 45] was 100%. The inhibition [22] was 12.9%, the residual activity [23, 45] was 82% and the residual activity [24, 45] was 47%. For the same compound, the residual activity [25, 45] was 28%, the residual activity [26, 45] was 100% and the residual activity [27, 45] was 15%. For the same compound, the residual activity [28, 45] was 79%, the residual activity [29, 45] was 90% and the residual activity [30, 45] was 85%. For the same compound, the inhibition [31] was 60.3%, the residual activity [32, 45] was 22% and the residual activity [33, 45] was 80%. The residual activity [34, 45] was 80%, the residual activity [35, 45] was 50% and the inhibition [36] was 29.5%. It also gave a residual activity [37, 45] of 6.7%, a residual activity [38, 45] of 92% and an inhibition [39] of -6.58%. For the same compound, the residual activity [40, 45] was 39%, the residual activity [41, 45] was 71% and the residual activity [42, 45] was 58%. The residual activity [43, 45] was 46%.
